Experimental data reported in ChEMBL document CHEMBL1159365, “Sesquiterpenoids from Artemisia gilvescens and an anti-MRSA compound” (J Nat Prod, 2003).
≈ marks a conversion by molar mass, not a printed value.

Each molecule was assayed on Staphylococcus aureus (assay: Antimicrobial activity against methicillin-resistant Staphylococcus aureus after 20 hrs).
Format: functional

| Structure (SMILES) | MIC [µg/mL] |
| --- | --- |
| CC1=CC(=O)c2c(C)cc3oc(=O)c(C)c-3cc21 | 1.95 (≈ 8.12 µM) |

Each molecule was assayed on HCT-116 (assay: Cytotoxicity against human HCT116 cells by MTT assay).
Format: functional, cell-based

| Structure (SMILES) | IC50 [µM] |
| --- | --- |
| CC1=CC(=O)c2c(C)cc3oc(=O)c(C)c-3cc21 | 16 |
| C=C1C(=O)O[C@H]([C@@H]2C(=O)C=C[C@@]2(C)O)[C@H]1CCC(C)=O [SECOTANAPARTHOLIDE A] | 6 |
| C=C1C(=O)O[C@H]2[C@H]1CC[C@@](C)(O)[C@]13O[C@H]1[C@H]1O[C@@]1(C)[C@H]23 [ARTECANIN] | 14 |
| C=C1C(=O)O[C@H]([C@@H]2C(=O)C=C[C@]2(C)O)[C@H]1CCC(C)=O [SECOTANAPARTHOLIDE B] | 3.3 |
| C=C1C(=O)O[C@H](C2=C(C)[C@@H](O)CC2=O)[C@H]1CCC(C)=O [ISOSECOTANAPARTHOLIDE] | 13 |
| C=C1C(=O)O[C@H]([C@H]2C(=O)C=C[C@@]2(C)O)[C@H]1CCC(C)=O | 6 |
